Literature values in patent US8951536B2, “N-hydroxyamidinoheterocycles as modulators of indoleamine 2,3-dioxygenase” (Incyte Corporation, priority 2005, dated 2015).

What was measured:
[1] = system: pregnant mice (carrying syngeneic or allogeneic fetuses); conditions: pregnant mice exposed to 1MT; Munn et al. 1998
[2] = system: CD123-positive dendritic cells; conditions: mature and immature CD123-positive dendritic cells; Munn et al. 2002
[3] = system: HeLa cells co-cultured with peripheral blood lymphocytes (PBLs); conditions: Logan et al. 2002
P815 tumor = conditions: pre-immunized immune-competent mice; Uyttenhove et al.
LLC tumors = LLC tumors in C57Bl/6 mice, versus placebo; Friberg et al.
tumor growth in mice = conditions: Muller et al. 2005

Row | SMILES | rejection of allogeneic concepti [1] | IDO suppressive activity on T-cell activity [2] | reduction in PBL proliferation upon treatment with IL2 [3] | growth of tumors (P815 tumor) | formation of tumors (LLC tumors) | tumor growth with chemotherapeutic agents (tumor growth in mice)
1 | Cn1cc(C[C@H](N)C(=O)O)c2ccccc21 [1-methyl-tryptophan] | rapid, T cell-induced rejection of all allogeneic concept | blocked | reversed |  |  | 
2 | Cn1cc(CC(N)C(=O)O)c2ccccc21 (stereo not drawn) [Example 1-MT] |  |  |  | inhibited | markedly delayed | can synergize with chemotherapeutic agents to reduce tumor growth in mice
